How the values were obtained:
ALK2 = ALK2 (Homo sapiens, UniProt Q04771); experiment: Kinobeads competition binding, HeLa Placenta lysate mix; set-up: capturing and identification of kinases from mixed HeLa placenta lysates; endogenous in cells; host or cells: mix of HeLa cell lysate and placenta tissue lysate; conditions: 10 μM free compound
Description: (§1) To one aliquot of cell lysate 10 μM of the free compound (FIG. 3, CZC31326) was added and allowed to bind to proteins in the lysate. Then the affinity matrix with the immobilized compound was added to capture proteins that were not interacting with the previously added free compound. Beads were separated from the lysate and bead bound proteins were eluted in SDS sample buffer and subsequently separated by SDS-Polyacrylamide gel electrophoresis (FIG. 10). Suitable gel bands were cut out and subjected to in-gel proteolytic digestion with trypsin. The second lysate aliquot was processed identically, however no free compound was added (DMSO solvent control). Peptides originating from samples 1 and 2 were labeled with iTRAQ reagents (iTRAQ 114 and iTRAQ 117) and the combined samples were analyzed with a nano-flow liquid chromatography system coupled online to a tandem mass spectrometer (LC-MS/MS) experiment followed by iTRAQ reporter ion quantification in the MS/MS spectra as described in Example 2.

ARG = ARG (Homo sapiens, UniProt P42684); experiment: as above; set-up: capturing and identification of kinases from mixed HeLa placenta lysates; endogenous in cells; host or cells: mix of HeLa cell lysate and placenta tissue lysate; conditions: 10 μM free compound
Description: as §1

CDK2 = CDK2 (Homo sapiens, UniProt P24941); experiment: as above; set-up: capturing and identification of kinases from mixed HeLa placenta lysates; endogenous in cells; host or cells: mix of HeLa cell lysate and placenta tissue lysate; conditions: 10 μM free compound
Description: as §1

CDK9 = CDK9 (Homo sapiens, UniProt P50750); experiment: as above; set-up: capturing and identification of kinases from mixed HeLa placenta lysates; endogenous in cells; host or cells: mix of HeLa cell lysate and placenta tissue lysate; conditions: 10 μM free compound
Description: as §1

CK2a2 = CK2a2 (Homo sapiens, UniProt P19784); experiment: as above; set-up: capturing and identification of kinases from mixed HeLa placenta lysates; endogenous in cells; host or cells: mix of HeLa cell lysate and placenta tissue lysate; conditions: 10 μM free compound
Description: as §1

MST2 = MST2 (Homo sapiens, UniProt Q13188); experiment: as above; set-up: capturing and identification of kinases from mixed HeLa placenta lysates; endogenous in cells; host or cells: mix of HeLa cell lysate and placenta tissue lysate; conditions: 10 μM free compound
Description: as §1

[1] = molecular target: T1, kinases from mixed HeLa placenta lysates (Homo sapiens, UniProt O14976); experiment: Kinobeads competition binding with immobilized CZC25342, mixed HeLa placenta lysates (Example 5, Table 7); conditions: kinase GAK; 10 μM free compound; HeLa Placenta lysate mix
T1 construct: capturing and identification of kinases from mixed HeLa placenta lysates; endogenous in cells; host or cells: mixed lysate of HeLa cells and placenta tissue
Method in brief: (§2)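 Mixed HeLa/placenta lysate was preincubated with 10 μM free CZC25342 or DMSO, followed by capture on beads bearing immobilized compound. Bound proteins were eluted, separated by SDS-PAGE, trypsin-digested, iTRAQ-labelled and quantified by LC-MS/MS. Percent competition was taken against the DMSO control.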

[2] = molecular target: T2, kinases from mixed HeLa placenta lysates (Homo sapiens, UniProt O96013); experiment: as above; conditions: kinase PAK4; 10 μM free compound; HeLa Placenta lysate mix
T2 construct: capturing and identification of kinases from mixed HeLa placenta lysates; endogenous in cells; host or cells: mixed lysate of HeLa cells and placenta tissue
Method in brief: as §2

[3] = molecular target: T3, kinases from mixed HeLa placenta lysates (Homo sapiens, UniProt P06241); experiment: as above; conditions: kinase FYN; 10 μM free compound; HeLa Placenta lysate mix
T3 construct: capturing and identification of kinases from mixed HeLa placenta lysates; endogenous in cells; host or cells: mixed lysate of HeLa cells and placenta tissue
Method in brief: as §2

[4] = molecular target: T4, kinases from mixed HeLa placenta lysates (Homo sapiens, UniProt P23458); experiment: as above; conditions: kinase JAK1; 10 μM free compound; HeLa Placenta lysate mix
T4 construct: capturing and identification of kinases from mixed HeLa placenta lysates; endogenous in cells; host or cells: mixed lysate of HeLa cells and placenta tissue
Method in brief: as §2

[5] = molecular target: T5, kinases from mixed HeLa placenta lysates (Homo sapiens, UniProt P78527); experiment: as above; conditions: kinase DNAPK; 10 μM free compound; HeLa Placenta lysate mix
T5 construct: capturing and identification of kinases from mixed HeLa placenta lysates; endogenous in cells; host or cells: mixed lysate of HeLa cells and placenta tissue
Method in brief: as §2

[6] = molecular target: T6, kinases from mixed HeLa placenta lysates (Homo sapiens, UniProt Q02763); experiment: as above; conditions: kinase TIE2; 10 μM free compound; HeLa Placenta lysate mix
T6 construct: capturing and identification of kinases from mixed HeLa placenta lysates; endogenous in cells; host or cells: mixed lysate of HeLa cells and placenta tissue
Method in brief: as §2

[7] = molecular target: T7, kinases from mixed HeLa placenta lysates (Homo sapiens, UniProt Q15349); experiment: as above; conditions: kinase RSK3; 10 μM free compound; HeLa Placenta lysate mix
T7 construct: capturing and identification of kinases from mixed HeLa placenta lysates; endogenous in cells; host or cells: mixed lysate of HeLa cells and placenta tissue
Method in brief: as §2

[8] = molecular target: T8, kinases from mixed HeLa placenta lysates (Homo sapiens, UniProt Q2M2I8); experiment: as above; conditions: kinase AAK1; 10 μM free compound; HeLa Placenta lysate mix
T8 construct: capturing and identification of kinases from mixed HeLa placenta lysates; endogenous in cells; host or cells: mixed lysate of HeLa cells and placenta tissue
Method in brief: as §2

## CS(=O)(=O)Nc1ccccc1Nc1nc(Nc2cccc(OCCN)c2)ncc1Cl [CZC31326, N-(2-(2-(3-(2-aminoethoxy)phenylamino)-5-chloropyrimidin-4-ylamino)phenyl)methanesulfonamide]
ALK2
  inhibition at 10 µM: 94.3%
ARG
  inhibition at 10 µM: 91.2%
CDK2
  Competition %: 93%
CDK9
  inhibition at 10 µM: 95.3%
CK2a2
  inhibition at 10 µM: 95.4%
MST2
  inhibition at 10 µM: 93.9%

## CS(=O)(=O)Nc1ccccc1Nc1nc(Nc2cccc(OCCN)c2)ncc1F [CZC25342, N-(2-(2-(3-(2-aminoethoxy)phenylamino)-5-fluoropyrimidin-4-ylamino)phenyl)methanesulfonamide]
[1]
  Competition % GAK: 95.9%
[2]
  Competition % PAK4: 94.8%
[3]
  Competition % FYN: 93.2%
[4]
  Competition % JAK1: 96.7%
[5]
  Competition % DNAPK: 89.2%
[6]
  Competition % TIE2: 91.4%
[7]
  Competition % RSK3: 95.5%
[8]
  Competition % AAK1: 95.6%
